Assay results published in ChEMBL document CHEMBL5634085, “Design, synthesis and antitrypanosomatid activity of 2-nitroimidazole-3,5-disubstituted isoxazole compounds based on benznidazole” (Eur J Med Chem, 2023).

Key:
Leishmania amazonensis [1] = test: (§1) Antileishmanial activity against Leishmania amazonensis IFLA/BR/1967/PH8 amastigotes infected in mouse peritoneal macrophage assessed as inhibition of parasite growth pre-infected in cells for 4 hrs followed by compound addition and measured after 24 hrs by Giemsa staining based analysis; type: functional, organism-based; conditions: IFLA/BR/1967/PH8, Peritoneal macrophage
[2] = Selectivity index, ratio of CC50 for monkey LLC-MK2 cells to IC50 for Trypanosoma cruzi Tulahuen lacZ expressing beta-galactosidase amastigotes infected monkey LLC-MK2 cells; type: toxicity; conditions: read-out: Ratio CC50/IC50
[3] = Cytotoxicity against monkey LLC-MK2 cells incubated for 72 hrs by MTT assay; type: toxicity, cell-based, Macaca mulatta; conditions: rhesus monkey
[4] = Selectivity index, ratio of CC50 for cytotoxicity against monkey LLC-MK2 cells to IC50 for antileishmanial activity against Leishmania amazonensis IFLA/BR/1967/PH8 amastigotes infected in mouse peritoneal macrophage; type: toxicity, cell-based; conditions: read-out: Ratio CC50/IC50
Trypanosoma cruzi [5] = test: Antitrypanosomal activity against Trypanosoma cruzi Tulahuen lacZ expressing beta-galactosidase amastigotes infected in monkey LLC-MK2 cells assessed as inhibition of amastigotes pre-infected in cells for 48 hrs followed by compound addition and measured after 72 hrs by CPRG reagent based absorbance analysis; type: functional, organism-based
Leishmania amazonensis [6] = test: as §1, with “Potency index, ratio of pentamidine IC50 to test compound IC50 for antileishmanial” for “Antileishmanial”; type: functional, Peritoneal macrophage cell
Trypanosoma cruzi [7] = test: Binding affinity to Trypanosoma cruzi type I nitro reductase at 25 uM incubated for 5 mins in the presence of NADH by microplate reader analysis
Trypanosoma cruzi [8] = test: Binding affinity to Trypanosoma cruzi type I nitro reductase at 10 uM incubated for 5 mins in the presence of NADH by microplate reader analysis

Structure (SMILES) | IC50 (Trypanosoma cruzi [5]) | Kobs (Trypanosoma cruzi [7]) | Kobs (Trypanosoma cruzi [8]) | IC50 (Leishmania amazonensis [1]) | selectivity ratio [2] | CC50 at 72 h [3] | selectivity ratio [4] | Ratio IC50 (Leishmania amazonensis [6])
Cc1ccc(-c2cc(Cn3ccnc3[N+](=O)[O-])on2)cc1 | 9.3 µM |  |  | 26.7 µM | > 5.4 | > 50 µM | > 1.9 | 
COc1cc(-c2cn(-c3cc(OC)c(OC)c(OC)c3)nn2)cc(OC)c1OC |  |  |  | 9.4 µM |  |  |  | 
COc1cc(-n2cc(-c3ccc4c(c3)OCO4)nn2)cc(OC)c1OC |  |  |  | 4.4 µM |  |  |  | 
CSc1ccc(-c2cc(Cn3ccnc3[N+](=O)[O-])on2)cc1 | 31.4 µM |  |  | 22.4 µM | > 1.6 | > 50 µM | > 2.2 | 
COc1ccc(-c2cc(-c3cc(OC)c(OC)c(OC)c3)no2)cc1OC |  |  |  | 0.7 µM |  |  |  | 
C[C@@H]1[C@H](O)[C@@H](C)/C=C/C=C/C=C/C=C/C=C/C=C/C=C/[C@H](O[C@@H]2O[C@H](C)[C@@H](O)[C@H](N)[C@@H]2O)C[C@@H]2O[C@](O)(C[C@@H](O)C[C@@H](O)[C@H](O)CC[C@@H](O)C[C@@H](O)CC(=O)O[C@H]1C)C[C@H](O)[C@H]2C(=O)O [AMPHOTERICIN B] |  |  |  | 2.3 µM |  | 22.8 µM | 9.87 | 
CN1CCCN(c2ccc(-c3cc(Cn4ccnc4[N+](=O)[O-])on3)cc2)CC1 | 1.6 µM |  |  | 2.3 µM | > 32 | > 50 µM | > 21.3 | 7.1
CC(C)N1CCN(c2ccc(-c3cc(Cn4ccnc4[N+](=O)[O-])on3)cc2)CC1 | 6.6 µM |  |  | 4.7 µM | > 7.6 | > 50 µM | > 10.6 | 3.5
N=C(N)c1ccc(OCCCCCOc2ccc(C(=N)N)cc2)cc1 [PENTAMIDINE] |  |  |  | 16.8 µM |  |  |  | 
O=[N+]([O-])c1nccn1Cc1cc(-c2ccncc2)no1 | 3.1 µM |  |  | 16.3 µM | > 16.3 | > 50 µM | > 3 | 
O=[N+]([O-])c1nccn1Cc1cc(-c2ccc(N3CCNCC3)cc2)no1 | 4.7 µM |  |  | 2.5 µM | > 10.5 | > 50 µM | > 19.8 | 6.6
COc1cc(-c2cc(-c3ccc4c(c3)OCO4)no2)cc(OC)c1OC |  |  |  | 1.4 µM |  |  |  | 
O=[N+]([O-])c1nccn1Cc1cc(-c2cccnc2)no1 | 7.8 µM |  |  | 73.8 µM | > 6.4 | > 50 µM | > 0.7 | 
CN(C)c1ccc(-c2cc(Cn3ccnc3[N+](=O)[O-])on2)cc1 | 2.3 µM | 0.31 s⁻¹ | 0.24 s⁻¹ | 33.4 µM | > 21.2 | > 50 µM | > 1.5 | 
O=[N+]([O-])c1nccn1Cc1cc(-c2ccc3c(c2)OCO3)no1 | 3.6 µM |  |  | 8.3 µM | > 13.8 | > 50 µM | > 6 | 2
O=[N+]([O-])c1nccn1Cc1cc(-c2cccc(Cl)c2)no1 | 9.3 µM |  |  | 10.2 µM | > 5.3 | > 50 µM | > 4.9 | 
COc1ccc(-c2cc(Cn3ccnc3[N+](=O)[O-])on2)cc1 | 1.9 µM |  |  | 17.3 µM | > 25.6 | > 50 µM | > 2.9 | 
O=[N+]([O-])c1nccn1Cc1cc(-c2ccccn2)no1 | 7.5 µM |  |  | 37.8 µM | > 6.7 | > 50 µM | > 1.3 | 
COc1cc(-c2cc(-c3cc(OC)c(OC)c(OC)c3)on2)cc(OC)c1OC |  |  |  | 2.9 µM |  |  |  | 
COc1ccccc1-c1cc(Cn2ccnc2[N+](=O)[O-])on1 | 4.6 µM |  |  | 12.7 µM | > 10.9 | > 50 µM | > 3.9 | 
COc1ccc(-c2cc(-c3cc(OC)c(OC)c(OC)c3)on2)cc1OC |  |  |  | 0.4 µM |  |  |  | 
O=[N+]([O-])c1nccn1Cc1cc(-c2ccc(OC(F)(F)F)cc2)no1 | 15.2 µM |  |  | 35.6 µM | > 3.3 | > 50 µM | > 1.4 | 
O=[N+]([O-])c1nccn1Cc1cc(-c2ccc(Cl)cc2Cl)no1 | 3.7 µM |  |  | 33.7 µM | > 11.4 | 43.2 µM | 1.3 | 
COc1ccc(-n2cc(-c3cc(OC)c(OC)c(OC)c3)nn2)cc1OC |  |  |  | 29.2 µM |  |  |  | 
COc1ccc(-c2cc(Cn3ccnc3[N+](=O)[O-])on2)cc1Cl | 1 µM |  |  | 31.3 µM | > 49 | > 50 µM | > 1.6 | 
O=[N+]([O-])c1nccn1Cc1cc(-c2ccc(N3CCCCC3)cc2)no1 | 7.5 µM |  |  | 31.1 µM | > 6.7 | > 50 µM | > 1.6 | 
COc1ccc(-c2cn(-c3cc(OC)c(OC)c(OC)c3)nn2)cc1OC |  |  |  | 5.6 µM |  |  |  | 
O=[N+]([O-])c1cccc(-c2cc(Cn3ccnc3[N+](=O)[O-])on2)c1 | 5.3 µM |  |  | 35.1 µM | > 9.4 | > 50 µM | > 1.4 | 

More lines, main results first:

IC50 (Trypanosoma cruzi [5]) | Kobs (Trypanosoma cruzi [7]) | Kobs (Trypanosoma cruzi [8]) | Structure (SMILES) | IC50 (Leishmania amazonensis [1]) | selectivity ratio [2] | CC50 at 72 h [3] | selectivity ratio [4] | Ratio IC50 (Leishmania amazonensis [6])
2.3 µM |  |  | O=[N+]([O-])c1nccn1Cc1cc(-c2ccc(N3CCCC3)cc2)no1 | 9.9 µM | > 21.7 | > 50 µM | > 5 | 
23 µM |  |  | O=[N+]([O-])c1nccn1Cc1cc(-c2ccc(C(F)(F)F)cc2)no1 | 18 µM | 0.8 | 18.9 µM | 1 | 
3.3 µM |  |  | O=[N+]([O-])c1nccn1Cc1cc(-c2ccc(F)cc2)no1 | 24.2 µM | > 15.3 | > 50 µM | > 2.1 | 
> 100 µM |  |  | N#Cc1ccc(-c2cc(Cn3ccnc3[N+](=O)[O-])on2)cc1 | 34.6 µM | > 0.6 | > 50 µM | > 1.4 | 
1.5 µM |  |  | O=[N+]([O-])c1nccn1Cc1cc(-c2ccc(Cl)cc2)no1 | 26.6 µM | 32.5 | 48 µM | 1.8 | 
5.1 µM |  |  | O=[N+]([O-])c1nccn1Cc1cc(-c2ccc(Br)cc2)no1 | 17.4 µM | 8.4 | 43 µM | > 2.5 | 
6.2 µM |  |  | Nc1ccc(-c2cc(Cn3ccnc3[N+](=O)[O-])on2)cc1 | 21.7 µM | > 8.1 | > 50 µM | > 2.3 | 
1.9 µM |  |  | COc1cc(-c2cc(Cn3ccnc3[N+](=O)[O-])on2)cc(OC)c1OC | 14.6 µM | > 25.9 | > 50 µM | > 3.4 | 
2.2 µM |  |  | O=[N+]([O-])c1nccn1Cc1cc(-c2ccc(Cl)c(Cl)c2)no1 | 18.9 µM | > 22.2 | > 50 µM | > 2.6 | 
24.2 µM | 0.57 s⁻¹ | 0.54 s⁻¹ | COc1ccc(-c2cc(Cn3ccnc3[N+](=O)[O-])on2)cc1[N+](=O)[O-] | 15.2 µM | > 2.1 | > 50 µM | > 3.3 | 
4 µM |  |  | O=[N+]([O-])c1nccn1Cc1cc(-c2ccccc2)no1 | 33.1 µM | > 12.3 | > 50 µM | > 1.5 | 
6.5 µM |  |  | O=[N+]([O-])c1nccn1Cc1cc(-c2ccc(F)c(F)c2)no1 | 17.7 µM | > 7.6 | > 50 µM | > 2.8 | 
2.8 µM |  |  | O=[N+]([O-])c1nccn1Cc1cc(-c2ccc(N3CCOCC3)cc2)no1 | 54.1 µM | > 18 | > 50 µM | > 0.9 | 
3 µM |  |  | COc1ccc(-c2cc(Cn3ccnc3[N+](=O)[O-])on2)cc1O | 17.1 µM | > 16.6 | > 50 µM | > 2.9 | 
3.9 µM |  |  | O=[N+]([O-])c1nccn1Cc1cc(-c2ccc(N3CCCCCC3)cc2)no1 | 25.1 µM | > 12.8 | > 50 µM | > 1.9 | 
40.4 µM |  |  | N#Cc1cccc(-c2cc(Cn3ccnc3[N+](=O)[O-])on2)c1 | 36.6 µM | > 1.2 | > 50 µM | > 1.4 | 
6 µM |  |  | COc1cc(OC)cc(-c2cc(Cn3ccnc3[N+](=O)[O-])on2)c1 | 10.1 µM | > 8.3 | > 50 µM | > 4.9 | 
18.3 µM |  |  | O=[N+]([O-])c1ccc(-c2cc(Cn3ccnc3[N+](=O)[O-])on2)cc1 | 32.4 µM | 2.5 | 46.1 µM | 1.4 | 
> 100 µM |  |  | O=[N+]([O-])c1nccn1Cc1cc(-c2ccc(N3CCN(c4ccccc4)CC3)cc2)no1 | > 100 µM | > 1 | > 50 µM | > 0.5 | 
11.2 µM |  |  | COc1cccc(-c2cc(Cn3ccnc3[N+](=O)[O-])on2)c1 | 12.5 µM | > 4.4 | > 50 µM | > 4 | 
